Measured values from patent publication US10626095B2, “Cyanotriazole compounds” (OTSUKA PHARMACEUTICAL CO., LTD., priority 2013, dated 2020).

Tests used:
[1] = test system: Zucker Diabetic Fatty (ZDF) rat; assay: Meal load test in type 2 diabetic model rats (postprandial blood glucose); type: in vivo; parameters: unit not given here; conditions: ZDF rats fasted overnight, blood glucose one hour after meal loading (50 kcal/kg)
Protocol: Effects on Type 2 Diabetes: Meal Load Test
To evaluate whether a cyanotriazol compound improves diabetes or not, especially related to postprandial blood glucose, meal load test was performed using one of type 2 diabetic model rats, the Zucker Diabetic Fatty (ZDF) rat (Charles river, Japan). About 24 animals fasted overnight (17 h) were taken blood samples from the tail veins, and measured blood glucose levels (Pre BG) and body weights (BW). Proper animals were selected and divided into […] (n=6) based on the Pre BG and BW using SAS Statistical Analysis System (SAS institute Japan Ltd. Release 9.1). The compounds to be tested (10 or 30 mg/kg body weight in 5% Arabia gum) or Arabia gum solution only (vehicle group) were orally administrated via gavage two hours prior to or just before meal loading (50 kcal/kg body weight). The meal suspension was prepared by mixing purified AIN-93G (Norsan Corp, Yokohama, Japan) and distilled water (2:3, w/v). One-hour after meal loading, blood glucose (BG1h) of each animal was measured. Effectiveness of each compound was shown by ? BG1h (BG1h difference between compound group and vehicle group). Although a set of 24 animals was used several times (from 13 weeks to 21 weeks of age), at least a one-week interval was placed from one to another test.

[2] = test system: NaCT-CHO (CHO cells stably expressing human NaCT); assay: Assay of the citric acid cycle activation ([1,5-14C]-citric acid, diffusion of [14C]-CO2); type: cell-based; conditions: 1 hour incubation at 37° C. with [1,5-14C]-citric acid
Procedure, shortened: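 NaCT-CHO cells (pME-CHO empty-vector cells for non-specific counts) were incubated 1 h at 37 °C in Na+-containing HEPES-Tris pH 7.4 with compound plus an equal volume of 0.4 mM [1,5-14C]-citric acid solution. Residual cell radioactivity was counted, [14C]-CO2 diffusion was taken as (Total−R)/(Total−NS)×100%, and EC50 was derived by regression.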

| Compound | BG1h (BG1h difference between compound group and vehicle group) ([1]; oral 10 mg/kg in 5% Arabia gum) | EC50 [2] | BG1h (BG1h difference between compound group and vehicle group) ([1]; oral 30 mg/kg in 5% Arabia gum) |
| --- | --- | --- | --- |
| Cc1cc(-c2ccc(C(F)(F)F)nc2)cc(-c2nn[nH]c2C#N)c1 [Example 11, 5-[3-methyl-5-(6-trifluoromethyl-pyridin-3-yl)-phenyl]-3H-[1,2,3]triazole-4-carbonitrile] | −93.2 | 670 nM | – |
| N#Cc1[nH]nnc1-c1cc(-c2cccc(C(F)(F)F)n2)cc(C(F)(F)F)c1 [Example 14, 5-[3-trifluoromethyl-5-(6-trifluoromethyl-pyridin-2-yl)-phenyl]-3H-[1,2,3]triazole-4-carbonitrile] | −79.2 | 500 nM | – |
| COc1cc(-c2cc(C(F)(F)F)ccn2)cc(-c2nn[nH]c2C#N)c1 [Example 15, 5-[3-methoxy-5-(4-trifluoromethyl-pyridin-2-yl)-phenyl]-3H-[1,2,3]triazole-4-carbonitrile] | −50.5 | 490 nM | – |
| N#Cc1[nH]nnc1-c1cccc(-c2nccc(C(F)(F)F)n2)c1 [Example 21, 5-[3-(4-trifluoromethyl-pyrimidin-2-yl)-phenyl]-3H-[1,2,3]triazole-4-carbonitrile] | −95.7 | 770 nM | – |
| Cc1cc(-c2nccc(C(F)(F)F)n2)cc(-c2nn[nH]c2C#N)c1 [Example 22, 5-[3-methyl-5-(4-trifluoromethyl-pyrimidin-2-yl)-phenyl]-3H-[1,2,3]triazole-4-carbonitrile] | −108.5 | 650 nM | – |
| N#Cc1[nH]nnc1-c1cc(Cl)cc(-c2nccc(C(F)(F)F)n2)c1 [Example 23, 5-[3-chloro-5-(4-trifluoromethyl-pyrimidin-2-yl)-phenyl]-3H-[1,2,3]triazole-4-carbonitrile] | −137.0 | 450 nM | – |
| N#Cc1[nH]nnc1-c1cc(Cl)cc(-c2ccc(OC(F)(F)F)cc2)c1 [Example 29, 5-(5-chloro-4′-trifluoromethoxy-biphenyl-3-yl)-3H-[1,2,3]triazole-4-carbonitrile] | −37.3 | 680 nM | – |
| N#Cc1ccc(/C=C/c2cccc(-c3nn[nH]c3C#N)c2)cc1 [Example 41, 5-{3-[(E)-2-(4-cyano-phenyl)-vinyl]-phenyl}-3H-[1,2,3]triazole-4-carbonitrile] | −158.0 | 390 nM | – |
| N#Cc1[nH]nnc1-c1cc(Cl)cc(/C=C/c2cccc(C(F)(F)F)c2)c1 [Example 47, 5-{3-chloro-5-[(E)-2-(3-trifluoromethyl-phenyl)-vinyl]-phenyl}-3H-[1,2,3]triazole-4-carbonitrile] | −89.7 | 1070 nM | – |
| N#Cc1[nH]nnc1-c1cccc(/C=C/c2cncc(C(F)(F)F)c2)c1 [Example 49, 5-{3-[(E)-2-(5-trifluoromethyl-pyridin-3-yl)-vinyl]-phenyl}-3H-[1,2,3]triazole-4-carbonitrile] | −78.7 | 480 nM | – |
| N#Cc1[nH]nnc1-c1cccc(/C=C/c2cc(C(F)(F)F)ccn2)c1 [Example 50, 5-{3-[(E)-2-(4-trifluoromethyl-pyridin-2-yl)-vinyl]-phenyl}-3H-[1,2,3]triazole-4-carbonitrile] | −120.0 | 440 nM | – |
| N#Cc1[nH]nnc1-c1cc(/C=C/c2cccc(C(F)(F)F)n2)cc(C(F)(F)F)c1 [Example 51, 5-{3-trifluoromethyl-5-[(E)-2-(6-trifluoromethyl-pyridin-2-yl)-vinyl]-phenyl}-3H-[1,2,3]triazole-4-carbonitrile] | −79.0 | 760 nM | – |
| N#Cc1[nH]nnc1-c1cccc(/C=C/c2nccc(C(F)(F)F)n2)c1 [Example 52, 5-{3-[(E)-2-(4-trifluoromethyl-pyrimidin-2-yl)-vinyl]-phenyl}-3H-[1,2,3]triazole-4-carbonitrile] | −120.4 | 580 nM | – |
| N#Cc1[nH]nnc1-c1cccc(COc2cc(C(F)(F)F)ccn2)c1 [Example 55, 5-[3-(4-trifluoromethyl-pyridin-2-yloxymethyl)-phenyl]-3H-[1,2,3]triazole-4-carbonitrile] | −110.2 | 650 nM | – |
| N#Cc1[nH]nnc1-c1cccc(OCc2cc(C(F)(F)F)ccc2C(F)(F)F)c1 [Example 60, 5-[3-(2,5-bis-trifluoromethyl-benzyloxy)-phenyl]-3H-[1,2,3]triazole-4-carbonitrile] | −132.0 | 300 nM | – |
| N#Cc1[nH]nnc1-c1ccc(-c2nccc(C(F)(F)F)n2)cc1 [Example 70, 5-[4-(4-trifluoromethyl-pyrimidin-2-yl)-phenyl]-3H-[1,2,3]triazole-4-carbonitrile] | −137.2 | 510 nM | – |
| N#Cc1[nH]nnc1-c1csc(-c2ccc(Cl)cc2)n1 [Example 75, 5-[2-(4-chloro-phenyl)-thiazol-4-yl]-3H-[1,2,3]triazole-4-carbonitrile] | −83.2 | 880 nM | – |
| N#Cc1[nH]nnc1-c1csc(-c2ccc(Cl)c(Cl)c2)n1 [Example 77, 5-[2-(3,4-dichloro-phenyl)-thiazol-4-yl]-3H-[1,2,3]triazole-4-carbonitrile] | −61.3 | 910 nM | – |
| N#Cc1[nH]nnc1-c1csc(-c2cccc(C(F)(F)F)c2)n1 [Example 78, 5-[2-(3-trifluoromethyl-phenyl)-thiazol-4-yl]-3H-[1,2,3]triazole-4-carbonitrile] | −93.7 | 510 nM | – |
| N#Cc1[nH]nnc1-c1csc(-c2cccc(OC(F)(F)F)c2)n1 [Example 79, 5-[2-(3-trifluoromethoxy-phenyl)-thiazol-4-yl]-3H-[1,2,3]triazole-4-carbonitrile] | −51.0 | 620 nM | – |
| Cc1sc(-c2ccc(F)c(Cl)c2)nc1-c1nn[nH]c1C#N [Example 90, 5-[2-(3-chloro-4-fluoro-phenyl)-5-methyl-thiazol-4-yl]-3H-[1,2,3]triazole-4-carbonitrile] | −119.0 | 560 nM | – |
| Cc1sc(-c2ccc(C(F)(F)F)cc2)nc1-c1nn[nH]c1C#N [Example 92, 5-[5-methyl-2-(4-trifluoromethyl-phenyl)-thiazol-4-yl]-3H-[1,2,3]triazole-4-carbonitrile] | −69.2 | 820 nM | – |
| CCc1sc(-c2ccc(Cl)cc2)nc1-c1nn[nH]c1C#N [Example 98, 5-[2-(4-chloro-phenyl)-5-ethyl-thiazol-4-yl]-3H-[1,2,3]triazole-4-carbonitrile] | −87.9 | 590 nM | – |
| CCc1sc(-c2ccc(C(F)(F)F)cn2)nc1-c1nn[nH]c1C#N [Example 100] | −100.5 | 540 nM | – |
| N#Cc1[nH]nnc1-c1nc(-c2cccc(C(F)(F)F)c2)sc1Cl [Example 108, 5-[5-chloro-2-(3-trifluoromethyl-phenyl-phenyl)-thiazol-4-yl]-3H-[1,2,3]triazole-4-carbonitrile] | −101.9 | 420 nM | – |
| N#Cc1[nH]nnc1-c1nc(-c2cccc(C(F)(F)F)c2)oc1C1CC1 [Example 120, 5-[5-cyclopropyl-2-(3-trifluoromethyl-phenyl)-oxazol-4-yl]-3H-[1,2,3]triazole-4-carbonitrile] | −114.3 | 890 nM | – |
| CC(C)c1oc(-c2ccc(Cl)cc2)nc1-c1nn[nH]c1C#N [Example 122, 5-[2-(4-chloro-phenyl)-5-isopropyl-oxazol-4-yl]-3H-[1,2,3]triazole-4-carbonitrile] | −75.5 | 510 nM | – |
| CC(=O)OCn1nc(C#N)c(-c2cc(C)cc(-c3nccc(C(F)(F)F)n3)c2)n1 [Example 1829, acetic acid 4-cyano-5-[3-methyl-5-(4-trifluoromethylpyrimidin-2-yl)phenyl]-2H-[1,2,3]triazol-2-ylmethyl ester] | – | – | −93.7 |
| CC(=O)OCn1nc(C#N)c(-c2cc(Cl)cc(/C=C/c3cccc(C(F)(F)F)c3)c2)n1 [Example 1830, acetic acid 4-{3-chloro-5-[(E)-2-(3-trifluoromethylphenyl)vinyl]phenyl}-5-cyano-2H-[1,2,3]triazol-2-ylmethyl ester] | – | – | −52.5 |
| CCCC(=O)OCn1nc(C#N)c(-c2cc(Cl)cc(/C=C/c3cccc(C(F)(F)F)c3)c2)n1 [Example 1831] | – | – | −61.0 |
